According to the NIST ThermoML archive (doi:10.1016/j.jct.2016.10.033):

Experiment: xn = mol fraction of the nth substance listed
Conditions: 103 kPa, Liquid, Vibrating tube method

C=C[Si](C)(OCC)OCC [methylvinyldiethoxysilane] + CO[Si](C)(OC)c1ccccc1
mass density [kg/m3]
Conditions | 298.15 K | 303.15 K | 308.15 K | 313.15 K | 318.15 K
x2 = 0 | 856.25 | 851.09 | 845.89 | 840.71 | 835.44
x2 = 0.05 | 863.72 | 858.61 | 853.46 | 848.28 | 843.09
x2 = 0.1001 | 871.17 | 866.08 | 860.96 | 855.82 | 850.66
x2 = 0.1499 | 878.58 | 873.53 | 868.43 | 863.33 | 858.2
x2 = 0.2001 | 885.98 | 880.95 | 875.9 | 870.83 | 865.74
x2 = 0.2501 | 893.45 | 888.45 | 883.43 | 878.38 | 873.33
x2 = 0.3 | 900.68 | 895.69 | 890.69 | 885.67 | 880.64
x2 = 0.3499 | 907.99 | 903.05 | 898.08 | 893.09 | 888.08
x2 = 0.4 | 915.28 | 910.36 | 905.41 | 900.45 | 895.47
x2 = 0.4501 | 922.58 | 917.68 | 912.77 | 907.84 | 902.89
x2 = 0.5 | 929.75 | 924.84 | 919.93 | 915 | 910.05
x2 = 0.5499 | 937 | 932.14 | 927.28 | 922.39 | 917.49
x2 = 0.6 | 944.21 | 939.4 | 934.57 | 929.72 | 924.87
x2 = 0.65 | 951.55 | 946.75 | 941.94 | 937.11 | 932.27
x2 = 0.6999 | 958.48 | 953.71 | 948.92 | 944.12 | 939.31
x2 = 0.75 | 965.63 | 960.89 | 956.12 | 951.35 | 946.57
x2 = 0.7999 | 972.72 | 968 | 963.25 | 958.51 | 953.74
x2 = 0.85 | 979.76 | 975.05 | 970.33 | 965.59 | 960.85
x2 = 0.8998 | 987.03 | 982.34 | 977.65 | 972.94 | 968.23
x2 = 0.9499 | 993.78 | 989.11 | 984.43 | 979.74 | 975.03
